Test results: ChEMBL document CHEMBL4602640, “Licochalcone A suppresses the proliferation of sarcoma HT-1080 cells, as a selective R132C mutant IDH1 inhibitor” (Bioorg Med Chem Lett, 2020)
Calls of active or inactive are those of the source. The rule behind the calls is not given here.

Tests used:
[1] = test system: HT-1080; test: Induction of cell cycle arrest in human HT1080 cells assessed accumulation at S phase at 10 uM incubated for 24 hrs by flow cytometric analysis (reference value: 52.69%); assay type: functional
[2] = test system: Isocitrate dehydrogenase [NADP] cytoplasmic (Homo sapiens), O75874 [R132C]; test: Binding affinity to IDH1 R132C mutant (unknown origin) by mass spectrometry
[3] = test system: HT-1080; test: Induction of cell cycle arrest in human HT1080 cells assessed accumulation at S phase at 5 uM incubated for 24 hrs by flow cytometric analysis (reference value: 52.69%); assay type: functional
[4] = test system: HT-1080; test: Induction of apoptosis in human HT1080 cells assessed as early apoptotic cells at 10 uM incubated for 48 hrs by flow cytometric analysis (reference value: 0.63%); assay type: functional
[5] = test system: HT-1080; test: Induction of apoptosis in human HT1080 cells assessed as necrotic cells at 20 uM incubated for 48 hrs by flow cytometric analysis (reference value: 0.95%); assay type: functional
[6] = biological target: T1, Isocitrate dehydrogenase [NADP] cytoplasmic (Homo sapiens, UniProt O75874); test: Inhibition of IDH1 (unknown origin) by enzymatic assay
[7] = biological target: T1, Isocitrate dehydrogenase [NADP] cytoplasmic; test: Binding affinity to IDH1 (unknown origin) by surface plasmon resonance assay
[8] = test system: HT-1080; test: Reduction in CDK1 protein expression in human HT1080 cells incubated for 48 hrs by Western blot analysis; assay type: functional, cell-based
[9] = test system: HT-1080; test: Reduction in CDK2 protein expression in human HT1080 cells incubated for 48 hrs by Western blot analysis; assay type: functional, cell-based
[10] = test system: HT-1080; test: Induction of apoptosis in human HT1080 cells assessed as viable cells at 5 uM incubated for 48 hrs by flow cytometric analysis (reference value: 95.9%); assay type: functional; settings: HT-1080, 48 h, read-out: Activity
[11] = biological target: T2, Isocitrate dehydrogenase [NADP] cytoplasmic (Homo sapiens, UniProt O75874, R132C); test: Binding affinity to IDH1 R132C mutant (unknown origin) by surface plasmon resonance assay
[12] = biological target: T3, Isocitrate dehydrogenase [NADP] cytoplasmic (Homo sapiens, UniProt O75874, R132H); test: Binding affinity to IDH1 R132H mutant (unknown origin) by surface plasmon resonance assay
[13] = test system: HT-1080; test: Induction of apoptosis in human HT1080 cells assessed as late apoptotic cells at 20 uM incubated for 48 hrs by flow cytometric analysis (reference value: 2.48%); assay type: functional
[14] = test system: HT-1080; test: Induction of apoptosis in human HT1080 cells assessed as early apoptotic cells at 20 uM incubated for 48 hrs by flow cytometric analysis (reference value: 0.63%); assay type: functional
[15] = test system: HT-1080; test: Reduction in CDK2 mRNA level in human HT1080 cells incubated for 48 hrs by qRT-PCR analysis; assay type: functional, cell-based
[16] = test system: U-87 MG; test: Cytotoxicity against human U87MG cells harboring wild type IDH1 incubated for 48 hrs; assay type: functional, cell-based, U-87MG ATCC
[17] = biological target: T1, Isocitrate dehydrogenase [NADP] cytoplasmic; test: Inhibition of IDH1 (unknown origin) at 30 uM by enzymatic assay
[18] = test system: HT-1080; test: Induction of cell cycle arrest in human HT1080 cells assessed accumulation at S phase at 20 uM incubated for 24 hrs by flow cytometric analysis (reference value: 52.69%); assay type: functional
[19] = test system: HT-1080; test: Induction of apoptosis in human HT1080 cells assessed as late apoptotic cells at 5 uM incubated for 48 hrs by flow cytometric analysis (reference value: 2.48%); assay type: functional
[20] = test system: Isocitrate dehydrogenase [NADP] cytoplasmic (Homo sapiens), O75874 [R132C]; test: Inhibition of IDH1 R132C mutant (unknown origin) at 30 uM by enzymatic assay
[21] = test system: HT-1080; test: Induction of cell cycle arrest in human HT1080 cells assessed accumulation at G1 phase at 20 uM incubated for 24 hrs by flow cytometric analysis (reference value: 31.67%); assay type: functional
[22] = test system: HT-1080; test: Induction of apoptosis in human HT1080 cells assessed as late apoptotic cells at 10 uM incubated for 48 hrs by flow cytometric analysis (reference value: 2.48%); assay type: functional
[23] = test system: Isocitrate dehydrogenase [NADP] cytoplasmic (Homo sapiens), O75874 [R132H]; test: Binding affinity to IDH1 R132H mutant (unknown origin) by mass spectrometry
[24] = test system: HT-1080; test: Induction of cell cycle arrest in human HT1080 cells assessed accumulation at G1 phase at 10 uM incubated for 24 hrs by flow cytometric analysis (reference value: 31.67%); assay type: functional
[25] = test system: HT-1080; test: Induction of cell cycle arrest in human HT1080 cells assessed accumulation at G1 phase at 5 uM incubated for 24 hrs by flow cytometric analysis (reference value: 31.67%); assay type: functional
[26] = test system: HT-1080; test: Induction of apoptosis in human HT1080 cells assessed as necrotic cells at 5 uM incubated for 48 hrs by flow cytometric analysis (reference value: 0.95%); assay type: functional
[27] = test system: HT-1080; test: Induction of apoptosis in human HT1080 cells assessed as early apoptotic cells at 5 uM incubated for 48 hrs by flow cytometric analysis (reference value: 0.63%); assay type: functional
[28] = test system: HT-1080; test: Induction of cell cycle arrest in human HT1080 cells assessed accumulation at G2 phase at 5 uM incubated for 24 hrs by flow cytometric analysis (reference value: 15.64%); assay type: functional
[29] = biological target: T2, Isocitrate dehydrogenase [NADP] cytoplasmic; test: Inhibition of IDH1 R132C mutant (unknown origin) by enzymatic assay
[30] = Cytotoxicity against human RCTEC incubated for 48 hrs
[31] = test system: HT-1080; test: Reduction in PDHB […] expression in human HT1080 cells by RNA-Seq data analysis; assay type: functional, cell-based
[32] = biological target: T3, Isocitrate dehydrogenase [NADP] cytoplasmic; test: Inhibition of IDH1 R132H mutant (unknown origin) by enzymatic assay
[33] = test system: HT-1080; test: Induction of apoptosis in human HT1080 cells assessed as viable cells at 10 uM incubated for 48 hrs by flow cytometric analysis (reference value: 95.9%); assay type: functional; settings: HT-1080, 48 h, read-out: Activity
[34] = test system: HT-1080; test: Induction of cell cycle arrest in human HT1080 cells assessed accumulation at G2 phase incubated for 24 hrs by flow cytometric analysis; assay type: functional, cell-based
[35] = test system: HT-1080; test: Induction of apoptosis in human HT1080 cells assessed as necrotic cells at 10 uM incubated for 48 hrs by flow cytometric analysis (reference value: 0.95%); assay type: functional
[36] = test system: HT-1080; test: Induction of cell cycle arrest in human HT1080 cells assessed accumulation at G2 phase at 20 uM incubated for 24 hrs by flow cytometric analysis (reference value: 15.64%); assay type: functional
[37] = test system: HT-1080; test: Induction of cell cycle arrest in human HT1080 cells assessed accumulation at G2 phase at 10 uM incubated for 24 hrs by flow cytometric analysis (reference value: 15.64%); assay type: functional
[38] = test system: HT-1080; test: Antiproliferative activity against human HT1080 cells harboring IDH1-R132C mutation incubated for 48 hrs; assay type: functional, cell-based
[39] = test system: HT-1080; test: Reduction in CDK1 mRNA level in human HT1080 cells incubated for 48 hrs by qRT-PCR analysis; assay type: functional, cell-based
[40] = test system: HT-1080; test: Reduction in ACO1 […] expression in human HT1080 cells by RNA-Seq data analysis; assay type: functional, cell-based
[41] = test system: HT-1080; test: Reduction in 2 HG level in human HT1080 cells harboring IDH1-R132C mutation incubated for 48 hrs by LC-MS analysis relative to control; assay type: functional
[42] = test system: HT-1080; test: Induction of apoptosis in human HT1080 cells assessed as viable cells at 20 uM incubated for 48 hrs by flow cytometric analysis (reference value: 95.9%); assay type: functional; settings: HT-1080, 48 h, read-out: Activity
[43] = species on record: Homo sapiens; test: Ratio of inhibition of IDH1 R132C mutant (unknown origin) at 30 uM to inhibition of IDH1 (unknown origin) at 30 uM by enzymatic assay

T1 sequence (O75874 whole entry): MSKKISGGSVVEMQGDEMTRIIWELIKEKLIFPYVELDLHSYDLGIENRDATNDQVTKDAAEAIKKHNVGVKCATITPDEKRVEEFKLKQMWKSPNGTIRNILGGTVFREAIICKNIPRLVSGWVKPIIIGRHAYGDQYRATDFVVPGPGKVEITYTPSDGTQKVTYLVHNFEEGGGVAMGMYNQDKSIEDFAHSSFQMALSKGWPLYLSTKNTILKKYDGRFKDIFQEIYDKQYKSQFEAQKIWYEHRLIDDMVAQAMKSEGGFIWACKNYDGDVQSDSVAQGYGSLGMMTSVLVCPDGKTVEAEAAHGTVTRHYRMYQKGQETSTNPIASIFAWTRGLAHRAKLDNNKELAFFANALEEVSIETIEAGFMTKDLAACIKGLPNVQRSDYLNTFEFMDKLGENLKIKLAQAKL
Chain of Isocitrate dehydrogenase [NADP] cytoplasmic (Homo sapiens), O75874 [R132C] (O75874 whole entry R132C): as the sequence (O75874 whole entry) above, with R132C counted along it
T3 sequence (O75874 2-414 R132H limits assumed): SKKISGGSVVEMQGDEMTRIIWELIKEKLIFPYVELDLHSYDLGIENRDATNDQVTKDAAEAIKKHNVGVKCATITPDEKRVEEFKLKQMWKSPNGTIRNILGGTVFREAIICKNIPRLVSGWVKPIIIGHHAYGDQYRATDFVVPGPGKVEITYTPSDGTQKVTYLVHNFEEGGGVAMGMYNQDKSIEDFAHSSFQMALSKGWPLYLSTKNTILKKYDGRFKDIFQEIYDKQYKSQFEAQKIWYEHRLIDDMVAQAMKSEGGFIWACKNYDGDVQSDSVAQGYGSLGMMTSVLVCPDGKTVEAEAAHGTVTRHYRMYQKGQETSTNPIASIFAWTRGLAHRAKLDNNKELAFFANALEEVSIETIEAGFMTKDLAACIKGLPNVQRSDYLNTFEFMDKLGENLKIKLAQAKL
T2 sequence (O75874 2-414 R132C limits assumed): as the sequence (O75874 2-414 R132H limits assumed) above, with H131C counted along it
Chain of Isocitrate dehydrogenase [NADP] cytoplasmic (Homo sapiens), O75874 [R132H] (O75874 whole entry R132H): as the sequence (O75874 whole entry) above, with R132H counted along it

## C=CC(C)(C)c1cc(/C=C/C(=O)c2ccc(O)cc2)c(OC)cc1O [LICOAGROCHACONE A]
[1]
  Activity: 45.83%
[2]
  Activity: Active
[3]
  Activity: 43.13%
[4]
  Activity: 4.97%
[5]
  Activity: 2.79%
[6]
  IC50: > 100 µM
[7]
  Kd: > 50 µM
[8]
  inhibition: Dose-dependent effect
[9]
  inhibition: Dose-dependent effect
[10]
  viability at 5 µM: 80.5%
[11]
  Kd: 2.81 µM
[12]
  Kd: 12.8 µM
[13]
  Activity: 54.4%
[14]
  Activity: 0.82%
[15]
  inhibition: Dose-dependent effect
[16]
  IC50: > 50 µM
[17]
  inhibition: inactive
[18]
  Activity: 41.29%
[19]
  Activity: 15.2%
[20]
  inhibition: Active
[21]
  Activity: 24.76%
[22]
  Activity: 26.6%
[23]
  Activity: inactive
[24]
  Activity: 21.99%
[25]
  Activity: 35.93%
[26]
  Activity: 3.13%
[27]
  Activity: 1.26%
[28]
  Activity: 20.94%
[29]
  IC50: 5.18 µM
[30]
  IC50: > 50 µM
[31]
  inhibition: Dose-dependent effect
[32]
  IC50: 76.9 µM
[33]
  viability at 10 µM: 64.1%
[34]
  Activity: Dose-dependent effect
[35]
  Activity: 4.4%
[36]
  Activity: 33.95%
[37]
  Activity: 24.18%
[38]
  Activity: Dose-dependent effect
[38]; HT-1080, 48 h
  IC50: 10.8 µM
[39]
  inhibition: Dose-dependent effect
[40]
  inhibition: Dose-dependent effect
[41]
  inhibition: Dose-dependent effect
  inhibition (INH): >50%
[42]
  viability at 20 µM: 42%
[43]
  Ratio: 3
